From patent US8729031B2, “Compounds” (priority 2009, dated 2014)
In brackets after ≈: the same amount, converted by molar mass.

How the values were obtained:
[1] = tested on: Staphylococcus aureus methicillin resistant ATCC 33591; assay: Mouse bacteraemia model; format: in vivo
Experimental: Groups of 6 male CD-1 (Crl.) derived mice weighing 24±2 g were used. Mice were inoculated intraperitoneally (IP) with an LD90-100 of Staphylococcus aureus methicillin resistant ATCC 33591 (1.1×10^7CFU/mouse) in 0.5 mL of BHI broth containing 5% mucin. The compound of example 1a and vancomycin were dissolved in 15% HPbetaCD/4.4% glucose/0.5 mM KH2PO4, pH 5.0 at doses of 1, 3, 5, 10 and 20 mg/Kg and were administered subcutaneously (SC) to test animals at 0, 2 and 24 hour(s) after bacteria challenge. The dosing volume was 5 mL/Kg. Mortality was recorded once daily for 7 days. The ED50 for each compound was determined by nonlinear regression.

[2] = In vivo plasma half-life in mice; settings: mouse, 29.76 mg/kg, male CD-1 mice, IV, 9.3 mL/Kg of 3.2 mg/mL solution
Experimental: The in vivo half-life of Example 1a in mice was determined by measurement of its plasma concentrations at various time points following IV dosing. 18 male CD-1 mice aged 7-9 weeks were dosed IV with a 9.3 mL/Kg dose of a 3.2 mg/mL solution of Example 1a in 15% hydroxyl-propyl-β-cyclodextrin/4.4% glucose/1 mM potassium phosphate (pH=7.6). Plasma samples were obtained at 10, 20, 30, 60, 120 and 240 min post-dose, sampling from 3 animals at each time point. Concentrations of Example 1a in plasma were determined by LC-MS quantification.

[3] = tested on: Methicillin Resistant Staphylococcus aureus (MRSA, ATCC 33591); assay: Neutropaenic mouse thigh infection model; format: in vivo; settings: for antimicrobial effect in thigh infection: IV at 5, 10, 20, 30 and 40 mg/Kg×2
Experimental: In vivo efficacy of compounds of the present invention in the treatment of bacterial tissue infections was evaluated using a neutropaenic mouse thigh model. Groups of 6 male ICR mice weighing 24±2 g were used. Test animals were immunosuppressed by 2 intraperitoneal injections of cyclophosphamide, the first at 150 mg/Kg 4 days before infection (day-4) and the second at 100 mg/Kg 1 day before infection (day-1). On day 0, individual animals were inoculated intramuscularly (IM) into the right thigh of test animals with 1.15×10^5 CFU/mouse of Methicillin Resistant Staphylococcus aureus (MRSA, ATCC 33591) suspended in 100 μL of sterile PBS, pH 7.4. Vehicle and test substances were administered intravenously (IV) at a dose volume of 8 mL/Kg, 2 and 14 hours after thigh infection. Example 1a (Compound I) and vancomycin were dissolved in 15% hydroxypropyl-β-cyclodextrin/4.4% glucose/1 mM potassium phosphate buffer, pH 7.0 and administered at doses of 5, 10, 20, 30 and 40 mg/Kg. At 26 hours after inoculation, muscle of the right thigh of each test mouse was harvested. From an additional group with no treatment, muscle of the right thigh was harvested at 2 hours after inoculation for the basal CFU determination. The removed muscle tissues were then homogenized in 3-4 mL of PBS, pH 7.4 with a ceramic mortar. Homogenates of 0.1 mL were used for serial 10-fold dilutions and plated on Mueller Hinton broth in 1.5% Bacto agar for CFU determination.

E. faecium = assay: MIC susceptibility testing, vancomycin resistant Enterococci (E. faecium); format: cell-based
Experimental: (§1) Susceptibility testing with the exception of Streptococcus pneumoniae was performed by two-fold serial dilutions in Mueller Hinton Broth supplemented with 50 μg/mL Ca^2+. Susceptibility testing of S. pneumoniae was performed by two-fold serial dilutions in Brain-Heart-Infusion Broth supplemented with 50 μg/mL Ca^2+.

Streptococcus pneumoniae = assay: microbe, parasite or virus in culture; format: cell-based
Experimental: as §1

E. faecalis = assay: MIC susceptibility testing, vancomycin resistant Enterococci (E. faecalis); format: cell-based; settings: E. faecalis 9758512, vancomycin resistant
Experimental: as §1

S. aureus R33 (MRSA) = format: cell-based
Experimental: as §1

S. aureus SH1000 = format: cell-based
Experimental: as §1

## CC[C@H](C)[C@@H]1NC(=O)[C@@H]2NC(=O)[C@H](CC(C)C)NC(=O)[C@H](NC(=O)[C@@H]3CSC[C@@H](N)C(=O)N[C@@H](CO)C(=O)NCC(=O)N[C@@H](Cc4c[nH]c5ccccc45)C(=O)N[C@@H](C(C)C)C(=O)N3)[C@H](C)SC[C@H](NC(=O)[C@H](CCC(=O)O)NC1=O)C(=O)NCC(=O)N[C@H]1C(=O)N[C@@H](CC(C)C)C(=O)N[C@@H](C(C)C)C(=O)N[C@@H](CS[C@H]2C)C(=O)N[C@@H](C)C(=O)N[C@H](C(=O)NCc2cc(Cl)cc(Cl)c2)CS[C@H]1C [Example 1a]
[1]; 3 mg/Kg, SC
  survival rate: 100%
[1]; 3, 5, 10 and 20 mg/Kg×3, SC
  antimicrobial effect against S. aureus (MR) in mice: significant antimicrobial effect
  increase in survival rate: at least 50%
[1]; SC at 0, 2 and 24 h after challenge, mortality over 7 days, nonlinear regression
  estimated ED50: 1.07 mg/kg
[2]
  half-life: ~2 h
[3]
  antimicrobial effect in thigh infection: significant antimicrobial effect
[3]; IV ×2 (2 and 14 h), 10 mg/kg and above, thigh muscle at 26 h
  reduction in CFU/g: > 1000 fold

## CC[C@H](C)[C@@H]1NC(=O)[C@@H]2NC(=O)[C@H](CC(C)C)NC(=O)[C@H](NC(=O)[C@@H]3CSC[C@@H](N)C(=O)N[C@@H](CO)C(=O)NCC(=O)N[C@@H](Cc4c[nH]c5ccccc45)C(=O)N[C@@H](C(C)C)C(=O)N3)[C@H](C)SC[C@H](NC(=O)[C@H](CCC(=O)O)NC1=O)C(=O)NCC(=O)N[C@H]1C(=O)N[C@@H](CC(C)C)C(=O)N[C@@H](C(C)C)C(=O)N[C@@H](CS[C@H]2C)C(=O)N[C@@H](C)C(=O)N[C@H](C(=O)NCc2cc(Cl)cc(Cl)c2)CS[C@H]1C [Example 1, Deoxyactagardine B (3,5-dichlorobenzylamine)monocarboxamide]
E. faecium; E. faecium 7662769, vancomycin resistant
  MIC: 8 µg/mL (≈ 3.94 µM)
E. faecium; E. faecium 7860190, vancomycin resistant
  MIC: 4 to 8 µg/mL
E. faecium; E. faecium 9710577, vancomycin resistant
  MIC: 8 µg/mL (≈ 3.94 µM)
Streptococcus pneumoniae; isolate QB37301, penicillin Resistant
  MIC: 2 µg/mL (≈ 0.984 µM)
Streptococcus pneumoniae; isolate QB37302, penicillin Resistant
  MIC: 1 µg/mL (≈ 0.492 µM)
Streptococcus pneumoniae; isolate QB37303, penicillin Intermediate
  MIC: 0.25 µg/mL (≈ 0.123 µM)
Streptococcus pneumoniae; isolate QB37304, penicillin Susceptible
  MIC: 0.25 µg/mL (≈ 0.123 µM)
Streptococcus pneumoniae; isolate QB37305, penicillin Susceptible
  MIC: 1 µg/mL (≈ 0.492 µM)
Streptococcus pneumoniae; isolate QB37306, penicillin Susceptible
  MIC: 0.25 to 0.5 µg/mL
Streptococcus pneumoniae; isolate QB37307, penicillin Intermediate
  MIC: 0.5 to 1 µg/mL
Streptococcus pneumoniae; isolate QB37308, penicillin Susceptible
  MIC: 0.25 to 0.5 µg/mL
Streptococcus pneumoniae; isolate QB37309, penicillin Resistant
  MIC: 2 µg/mL (≈ 0.984 µM)
Streptococcus pneumoniae; isolate QB37310, penicillin Resistant
  MIC: 0.25 µg/mL (≈ 0.123 µM)
Streptococcus pneumoniae; isolate QB37311, penicillin Resistant
  MIC: 0.03 µg/mL (≈ 0.0148 µM)
Streptococcus pneumoniae; isolate QB37312, penicillin Intermediate
  MIC: 0.5 µg/mL (≈ 0.246 µM)
Streptococcus pneumoniae; isolate QB37313, penicillin Susceptible
  MIC: 0.03 µg/mL (≈ 0.0148 µM)
Streptococcus pneumoniae; isolate QB37314, penicillin Resistant
  MIC: 1 µg/mL (≈ 0.492 µM)
Streptococcus pneumoniae; isolate QB37315, penicillin Susceptible
  MIC: 0.25 µg/mL (≈ 0.123 µM)
Streptococcus pneumoniae; isolate QB37316, penicillin Susceptible
  MIC: 2 µg/mL (≈ 0.984 µM)
Streptococcus pneumoniae; isolate QB37317, penicillin Susceptible
  MIC: 0.25 µg/mL (≈ 0.123 µM)
Streptococcus pneumoniae; isolate QB37318, penicillin Resistant
  MIC: 0.25 µg/mL (≈ 0.123 µM)
Streptococcus pneumoniae; isolate QB37319, penicillin Resistant
  MIC: 1 µg/mL (≈ 0.492 µM)
Streptococcus pneumoniae; isolate QB37320, penicillin Intermediate
  MIC: 1 µg/mL (≈ 0.492 µM)
E. faecalis
  MIC: 8 µg/mL (≈ 3.94 µM)

## Deoxyactagardine B [3-(2′-aminomethyl-4′-(2″,4″-dichlorophenyl)-furanyl)propylamine]monocarboxamide [Example 32]
S. aureus R33 (MRSA)
  MIC in μg/mL against strain S. aureus R33 (MRSA): ≦4 μg/mL
S. aureus SH1000
  MIC in μg/mL against strain S. aureus SH1000: ≦4 μg/mL

## Deoxyactagardine B (3,4-dichlorobenzylamine)monocarboxamide [Example 22]
S. aureus R33 (MRSA)
  MIC in μg/mL against strain S. aureus R33 (MRSA): ≦4 μg/mL
S. aureus SH1000
  MIC in μg/mL against strain S. aureus SH1000: ≦4 μg/mL

## CN[C@H](CC(C)C)C(=O)N[C@H]1C(=O)N[C@@H](CC(N)=O)C(=O)N[C@H]2C(=O)N[C@H]3C(=O)N[C@H](C(=O)N[C@H](C(=O)O)c4cc(O)cc(O)c4-c4cc3ccc4O)[C@H](O)c3ccc(c(Cl)c3)Oc3cc2cc(c3O[C@@H]2O[C@H](CO)[C@@H](O)[C@H](O)[C@H]2O[C@H]2C[C@](C)(N)[C@H](O)[C@H](C)O2)Oc2ccc(cc2Cl)[C@H]1O [vancomycin, reference compound]
[1]; 3, 5, 10 and 20 mg/Kg×3, SC
  antimicrobial effect against S. aureus (MR) in mice: significant antimicrobial effect
[1]; Staphylococcus aureus, ATCC33591, SC at 0, 2 and 24 h after challenge, mortality over 7 days, nonlinear regression, read-out: estimated ED50
  ED50: 3 mg/kg
[3]
  antimicrobial effect in thigh infection: significant antimicrobial effect
[3]; IV ×2 (2 and 14 h), 30 mg/kg and above, thigh muscle at 26 h
  reductions of CFU/g: > 100 fold

## Deoxyactagardine B (2,5-dichlorobenzylamine)monocarboxamide [Example 21]
S. aureus R33 (MRSA)
  MIC in μg/mL against strain S. aureus R33 (MRSA): ≦4 μg/mL
S. aureus SH1000
  MIC in μg/mL against strain S. aureus SH1000: ≦4 μg/mL

## deoxyactagardine B N-[1-(3-dimethylamino propyl)piperazine]monocarboxamide [reference compound]
S. aureus R33 (MRSA); strain R33, text b20
  MIC against Stapholococcus aureus strain R33: approximately 64 μL/mL
S. aureus SH1000; strain SH1000, text b20
  MIC against Stapholococcus aureus strain SH1000: approximately 64 μL/mL

## Actagardine (3,5-dichlorobenzylamine)monocarboxamide [Example 2]
S. aureus R33 (MRSA)
  MIC in μg/mL against strain S. aureus R33 (MRSA): ≦4 μg/mL
S. aureus SH1000
  MIC in μg/mL against strain S. aureus SH1000: ≦4 μg/mL
